Assay results taken from ChEMBL document CHEMBL1201862, “PubChem BioAssay data set” (2004).
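Step 1: Grow cells in 96-well plates. Step 2: Expose to compound for 48 hours at 5 concentrations. Step 3: Interpolate endpoints linearly; if unreached, use highest concentration. Here, GI50 denotes the concentration required for 50% inhibition of growth.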 Activity calls are given as the source filed them. Cut-off read from the data, not from the text of the source: active = GI50 up to about 1.1 µM and inactive = higher.

How the values were obtained:
Test in all cases: DTP human tumour cell line panel, 48 h
[1] = test system: COLO 205
[2] = test system: SK-MEL-5
[3] = test system: OVCAR-8
[4] = test system: NCI-H522
[5] = test system: RXF 393
[6] = test system: SR
[7] = test system: KM-20L2
[8] = test system: DMS-114
[9] = test system: HT-29
[10] = test system: EKVX
[11] = test system: MOLT-4
[12] = test system: M19-MEL
[13] = test system: HCC 2998
[14] = test system: SNB-19
[15] = test system: UO-31
[16] = test system: RXF 631
[17] = test system: HCT-116
[18] = test system: HOP-18
[19] = test system: DMS-273
[20] = test system: NCI-H23
[21] = test system: UACC-257
[22] = test system: SNB-78
[23] = test system: A498
[24] = test system: U-251
[25] = test system: CAKI-1
[26] = test system: NCI-H226
[27] = test system: OVCAR-5
[28] = test system: HOP-92
[29] = test system: K562
[30] = test system: SF-295
[31] = test system: SNB-75
[32] = test system: SK-MEL-28
[33] = test system: SF-539
[34] = test system: SN12C
[35] = test system: A549
[36] = test system: DLD-1
[37] = test system: OVCAR-4
[38] = test system: UACC-62
[39] = test system: 786-0
[40] = test system: IGROV-1
[41] = test system: Malme-3M
[42] = test system: ACHN
[43] = test system: TK-10
[44] = test system: SW-620
[45] = test system: NCI-H460
[46] = test system: LXFL 529
[47] = test system: LOX IMVI
[48] = test system: KM12
[49] = test system: SK-OV-3
[50] = test system: CCRF-CEM
[51] = test system: SK-MEL-2
[52] = test system: RPMI-8226
[53] = test system: HCT-15
[54] = test system: XF498
[55] = test system: HL-60
[56] = test system: M14
[57] = test system: HOP-62
[58] = test system: OVCAR-3
[59] = test system: SF-268

O=C(/C=C\c1cccc2ccccc12)c1cccc2ccccc12
GI50 [1]: > 10 µM (inactive)
GI50 [2]: 12.7 µM (inactive)
GI50 [3]: 5.82 µM (inactive)
GI50 [4]: 7.64 µM (inactive)
GI50 [5]: 5 µM (inactive)
GI50 [6]: 3.25 µM (inactive)
GI50 [7]: 9.55 µM (inactive)
GI50 [8]: 5.51 µM (inactive)
GI50 [9]: 5.25 µM (inactive)
GI50 [10]: 14.3 µM (inactive)
GI50 [11]: 2.82 µM (inactive)
GI50 [12]: 11.4 µM (inactive)
GI50 [13]: 13.1 µM (inactive)
GI50 [14]: 10.6 µM (inactive)
GI50 [15]: 14.3 µM (inactive)
GI50 [16]: 7.89 µM (inactive)
GI50 [17]: 6.22 µM (inactive)
GI50 [18]: > 10 µM (inactive)
GI50 [19]: 9.08 µM (inactive)
GI50 [20]: 5.93 µM (inactive)
GI50 [21]: 16 µM (inactive)
GI50 [22]: > 10 µM (inactive)
GI50 [23]: 17.2 µM (inactive)
GI50 [24]: 6.34 µM (inactive)
GI50 [25]: 8.07 µM (inactive)
GI50 [26]: 9.16 µM (inactive)
GI50 [27]: > 10 µM (inactive)
GI50 [28]: > 10 µM (inactive)
GI50 [29]: 4.92 µM (inactive)
GI50 [30]: 14.7 µM (inactive)
GI50 [31]: 5.37 µM (inactive)
GI50 [32]: 8.17 µM (inactive)
GI50 [33]: 14.3 µM (inactive)
GI50 [34]: 15.5 µM (inactive)
GI50 [35]: 13.1 µM (inactive)
GI50 [36]: 5.43 µM (inactive)
GI50 [37]: 6.37 µM (inactive)
GI50 [38]: 9.04 µM (inactive)
GI50 [39]: 4.4 µM (inactive)
GI50 [40]: 8.17 µM (inactive)
GI50 [41]: 15.9 µM (inactive)
GI50 [42]: 11.6 µM (inactive)
GI50 [43]: > 10 µM (inactive)
GI50 [44]: 3.37 µM (inactive)
GI50 [45]: 8.65 µM (inactive)
GI50 [46]: 9.38 µM (inactive)
GI50 [47]: 5.61 µM (inactive)
GI50 [48]: 6.55 µM (inactive)
GI50 [49]: > 10 µM (inactive)
GI50 [50]: 3.3 µM (inactive)
GI50 [51]: 18.6 µM (inactive)
GI50 [52]: 6.95 µM (inactive)
GI50 [53]: 4.03 µM
GI50 [54]: 7.57 µM (inactive)
GI50 [55]: 3.64 µM (inactive)
GI50 [56]: 12.2 µM (inactive)
GI50 [57]: 20.7 µM (inactive)
GI50 [58]: 7.91 µM (inactive)

CC1=Nn2c(nnc2-c2ccc(N)cc2)NC(C)(C)C1
GI50 [1]: > 100 µM (inactive)
GI50 [2]: > 100 µM (inactive)
GI50 [59]: > 100 µM (inactive)
GI50 [4]: > 100 µM (inactive)
GI50 [7]: > 100 µM (inactive)
GI50 [8]: > 100 µM (inactive)
GI50 [9]: > 100 µM (inactive)
GI50 [10]: > 100 µM (inactive)
GI50 [11]: > 100 µM (inactive)
GI50 [12]: > 100 µM (inactive)
GI50 [13]: > 100 µM (inactive)
GI50 [14]: > 100 µM (inactive)
GI50 [15]: > 100 µM (inactive)
GI50 [16]: > 100 µM (inactive)
GI50 [18]: > 100 µM (inactive)
GI50 [19]: > 100 µM (inactive)
GI50 [20]: > 100 µM (inactive)
GI50 [21]: > 100 µM (inactive)
GI50 [22]: > 100 µM (inactive)
GI50 [23]: > 100 µM (inactive)
GI50 [24]: > 100 µM (inactive)
GI50 [25]: > 100 µM (inactive)
GI50 [26]: > 100 µM (inactive)
GI50 [27]: > 100 µM (inactive)
GI50 [28]: > 100 µM (inactive)
GI50 [29]: > 100 µM (inactive)
GI50 [30]: > 100 µM (inactive)
GI50 [32]: > 100 µM (inactive)
GI50 [33]: > 100 µM (inactive)
GI50 [35]: > 100 µM (inactive)
GI50 [36]: > 100 µM (inactive)
GI50 [37]: > 100 µM (inactive)
GI50 [38]: > 100 µM (inactive)
GI50 [39]: > 100 µM (inactive)
GI50 [40]: > 100 µM (inactive)
GI50 [41]: > 100 µM (inactive)
GI50 [42]: > 100 µM (inactive)
GI50 [43]: > 100 µM (inactive)
GI50 [44]: > 100 µM (inactive)
GI50 [45]: > 100 µM (inactive)
GI50 [46]: > 100 µM (inactive)
GI50 [47]: > 100 µM (inactive)
GI50 [48]: > 100 µM (inactive)
GI50 [49]: > 100 µM (inactive)
GI50 [50]: > 100 µM (inactive)
GI50 [51]: > 100 µM (inactive)
GI50 [52]: > 100 µM (inactive)
GI50 [53]: > 100 µM
GI50 [54]: > 100 µM (inactive)
GI50 [55]: > 100 µM (inactive)
GI50 [56]: > 100 µM (inactive)
GI50 [57]: > 100 µM (inactive)
GI50 [58]: > 100 µM (inactive)

NCc1cc(O)c(O)c(O)c1
GI50 [1]: > 100 µM (inactive)
GI50 [2]: > 100 µM (inactive)
GI50 [59]: > 100 µM (inactive)
GI50 [3]: > 100 µM (inactive)
GI50 [4]: > 100 µM (inactive)
GI50 [5]: > 100 µM (inactive)
GI50 [6]: 91.2 µM (inactive)
GI50 [7]: > 100 µM (inactive)
GI50 [8]: > 100 µM (inactive)
GI50 [9]: > 100 µM (inactive)
GI50 [10]: > 100 µM (inactive)
GI50 [11]: > 100 µM (inactive)
GI50 [12]: 80.4 µM (inactive)
GI50 [14]: > 100 µM (inactive)
GI50 [15]: > 100 µM (inactive)
GI50 [16]: > 100 µM (inactive)
GI50 [17]: 63.5 µM (inactive)
GI50 [18]: > 100 µM (inactive)
GI50 [19]: > 100 µM (inactive)
GI50 [21]: > 100 µM (inactive)
GI50 [22]: > 100 µM (inactive)
GI50 [23]: > 100 µM (inactive)
GI50 [24]: > 100 µM (inactive)
GI50 [25]: > 100 µM (inactive)
GI50 [26]: > 100 µM (inactive)
GI50 [27]: > 100 µM (inactive)
GI50 [28]: > 100 µM (inactive)
GI50 [29]: 43.1 µM (inactive)
GI50 [30]: > 100 µM (inactive)
GI50 [31]: > 100 µM (inactive)
GI50 [32]: > 100 µM (inactive)
GI50 [34]: > 100 µM (inactive)
GI50 [35]: > 100 µM (inactive)
GI50 [36]: > 100 µM (inactive)
GI50 [37]: > 100 µM (inactive)
GI50 [38]: 59.3 µM (inactive)
GI50 [39]: > 100 µM (inactive)
GI50 [40]: > 100 µM (inactive)
GI50 [41]: > 100 µM (inactive)
GI50 [42]: > 100 µM (inactive)
GI50 [43]: > 100 µM (inactive)
GI50 [44]: > 100 µM (inactive)
GI50 [45]: > 100 µM (inactive)
GI50 [46]: > 100 µM (inactive)
GI50 [47]: 34.8 µM (inactive)
GI50 [48]: > 100 µM (inactive)
GI50 [49]: > 100 µM (inactive)
GI50 [50]: 38.5 µM (inactive)
GI50 [51]: > 100 µM (inactive)
GI50 [52]: 33.7 µM (inactive)
GI50 [53]: > 100 µM
GI50 [54]: > 100 µM (inactive)
GI50 [55]: 80.7 µM (inactive)
GI50 [56]: > 100 µM (inactive)
GI50 [57]: > 100 µM (inactive)
GI50 [58]: > 100 µM (inactive)

Cc1c(C(=O)C/C(=N/NC(=O)c2ccccc2)C(=O)Nc2ccc(Cl)cc2)[n+]([O-])c2ccccc2[n+]1[O-]
GI50 [1]: > 100 µM (inactive)
GI50 [2]: > 100 µM (inactive)
GI50 [59]: > 100 µM (inactive)
GI50 [3]: > 100 µM (inactive)
GI50 [4]: 38.4 µM (inactive)
GI50 [5]: 85.1 µM (inactive)
GI50 [6]: 63.8 µM (inactive)
GI50 [8]: 32.6 µM (inactive)
GI50 [9]: > 100 µM (inactive)
GI50 [11]: 47 µM (inactive)
GI50 [14]: 88.3 µM (inactive)
GI50 [16]: > 100 µM (inactive)
GI50 [17]: > 100 µM (inactive)
GI50 [18]: > 100 µM (inactive)
GI50 [19]: 75.2 µM (inactive)
GI50 [20]: 38.7 µM (inactive)
GI50 [21]: 69.8 µM (inactive)
GI50 [22]: > 100 µM (inactive)
GI50 [23]: > 100 µM (inactive)
GI50 [24]: > 100 µM (inactive)
GI50 [25]: 82.4 µM (inactive)
GI50 [26]: > 100 µM (inactive)
GI50 [27]: 79.3 µM (inactive)
GI50 [29]: 69 µM (inactive)
GI50 [30]: 63.8 µM (inactive)
GI50 [31]: > 100 µM (inactive)
GI50 [32]: > 100 µM (inactive)
GI50 [33]: > 100 µM (inactive)
GI50 [34]: > 100 µM (inactive)
GI50 [35]: > 100 µM (inactive)
GI50 [36]: 75.7 µM (inactive)
GI50 [37]: > 100 µM (inactive)
GI50 [39]: > 100 µM (inactive)
GI50 [40]: 99.5 µM (inactive)
GI50 [41]: > 100 µM (inactive)
GI50 [42]: > 100 µM (inactive)
GI50 [43]: > 100 µM (inactive)
GI50 [44]: 46.2 µM (inactive)
GI50 [45]: 49.1 µM (inactive)
GI50 [46]: 84.3 µM (inactive)
GI50 [47]: 89.1 µM (inactive)
GI50 [48]: > 100 µM (inactive)
GI50 [49]: > 100 µM (inactive)
GI50 [50]: 32.4 µM (inactive)
GI50 [51]: > 100 µM (inactive)
GI50 [52]: 80.4 µM (inactive)
GI50 [53]: 68.5 µM
GI50 [54]: > 100 µM (inactive)
GI50 [55]: 29 µM (inactive)
GI50 [56]: > 100 µM (inactive)
GI50 [57]: 90.8 µM (inactive)
GI50 [58]: 41.6 µM (inactive)
